# Assay results: ChEMBL document CHEMBL5352404, “Synthesis and evaluation of novel furanones as biofilm inhibitors in opportunistic human pathogens” (Eur J Med Chem, 2022)
# Activity calls are given as the source filed them. The rule behind the calls is not given here.
# Columns and labels:
# [1] = system: Stenotrophomonas maltophilia; assay: Antibacterial activity against Stenotrophomonas maltophilia K279a assessed as bacterial growth inhibition at 50 uM incubated for 20 hrs by broth microdilution method; format: functional, organism-based
# [2] = system: Stenotrophomonas maltophilia; assay: Inhibition of biofilm formation in Stenotrophomonas maltophilia K279a at 50 uM incubated for 24 hrs by crystal violet staining based analysis; format: functional, organism-based
# Pseudomonas aeruginosa [3] = assay: Antibacterial activity against eYFP labeled Pseudomonas aeruginosa PAO1 assessed as inhibition of bacterial growth at 50 uM incubated for 20 hrs by broth microdilution method relative to control; format: functional; parameters: scale not given: the % may be the effect or the level left
# Pseudomonas aeruginosa [4] = assay: Antibacterial activity against Pseudomonas aeruginosa PAR7244 assessed as bacterial growth inhibition at 50 uM incubated for 20 hrs by broth microdilution method; format: functional, organism-based
# Salmonella typhimurium [5] = assay: Antibiofilm activity against Salmonella enterica subsp. enterica serovar Typhimurium assessed as reduction in biofilm formation at 50 uM incubated for 24 hrs by crystal violet staining based assay relative to control; format: functional; parameters: scale not given: the % may be the effect or the level left
# Salmonella typhimurium [6] = assay: Antibacterial activity against Salmonella enterica subsp. enterica serovar Typhimurium assessed as bacterial growth inhibition at 50 uM incubated for 20 hrs by broth microdilution method; format: functional, organism-based
# Escherichia coli [7] = assay: Antibacterial activity against Escherichia coli ATCC 9637 assessed as bacterial growth inhibition at 50 uM incubated for 20 hrs by broth microdilution method relative to control; format: functional; parameters: scale not given: the % may be the effect or the level left
# Pseudomonas aeruginosa [8] = assay: Inhibition of biofilm formation in eYFP labeled Pseudomonas aeruginosa PAO1 at 50 uM incubated for 24 hrs by crystal violet staining based analysis relative to control; format: functional
# Candida albicans [9] = assay: Inhibition of biofilm formation in RFP-expressing Candida albicans M2396 at 50 uM incubated for 24 hrs by crystal violet staining based analysis relative to control; format: functional
# Candida albicans [10] = assay: Inhibition of biofilm formation in developmental phase of Candida albicans M2396 at 50 uM incubated for 24 hrs by crystal violet staining based analysis relative to control; format: functional
# Candida albicans [11] = assay: Antibiofilm activity against Candida albicans M2396 at 50 uM incubated for 24 hrs by confocal laser-scanning microscopy; format: functional, organism-based
# Pseudomonas aeruginosa [12] = assay: Antibiofilm activity against Pseudomonas aeruginosa PAO1 at 50 uM incubated for 24 hrs by confocal laser-scanning microscopy; format: functional, organism-based
# Candida albicans [13] = assay: Antibiofilm activity against Candida albicans M2396/Pseudomonas aeruginosa PA01 dual-species at 50 uM incubated for 24 hrs by confocal laser-scanning microscopy; format: functional, organism-based
# [14] = Toxicity in Galleria mellonella larvae assessed as reduction in animal survival at 100 uM
# [15] = Toxicity in Galleria mellonella larvae assessed as signs of melanization at 100 uM
# Staphylococcus aureus = assay: Inhibition of biofilm formation in Staphylococcus aureus Newman ATCC 25904 at 50 uM incubated for 24 hrs by crystal violet staining based assay relative to control; format: functional
# HK-2 = assay: Cytotoxicity against human HK-2 cells assessed as reduction in cell survival at 50 uM incubated for 24 to 48 hrs by MTT assay; format: toxicity, cell-based; details: hk-2, 50 µM, time 24-48 hrs
# Pseudomonas aeruginosa [16] = assay: Antibacterial activity against Pseudomonas aeruginosa PAR7244 infected in Galleria mellonella larvae assessed as increase in survival rate at 50 uM measured every 24 hrs (reference value: 48 %); format: functional
# Candida albicans [17] = assay: Inhibition of biofilm formation in Candida albicans M2396 at 50 uM incubated for 24 hrs by crystal violet staining based analysis; format: functional, organism-based
# Escherichia coli [18] = assay: Antibiofilm activity against Escherichia coli ATCC 9637 assessed as reduction in biofilm formation at 50 uM incubated for 24 hrs by crystal violet staining based assay; format: functional, organism-based
# Candida albicans [19] = assay: Inhibition of biofilm formation in developmental phase of Candida albicans M2396 at 50 uM incubated for 24 hrs by crystal violet staining based analysis; format: functional, organism-based
# Candida albicans [20] = assay: Antifungal activity against RFP-expressing Candida albicans M2396 assessed as fungal growth inhibition at 50 uM incubated for 20 hrs by microplate reader analysis; format: functional, organism-based
# Pseudomonas aeruginosa [21] = assay: Antibiofilm activity against Pseudomonas aeruginosa PAR7244 assessed as reduction in biofilm formation at 50 uM incubated for 24 hrs by crystal violet staining based analysis; format: functional, organism-based
SMILES,Activity [1],inhibition [2],Activity (Pseudomonas aeruginosa [3]),Activity (Pseudomonas aeruginosa [4]),inhibition at 50 µM (Pseudomonas aeruginosa [8]) [%],further results
O=C1C=C/C(=C(/Cl)c2ccccc2)O1,inactive,inactive,<=5%,inactive,–,–
O=C1C=CC(=C(c2ccccc2)c2ccccc2)O1,inactive,inactive,<=5%,inactive,–,–
O=C1C=C/C(=C(\Cl)I)O1,inactive,inactive,<=5%,inactive,51,Activity (Salmonella typhimurium [5]): 59%; Activity (Salmonella typhimurium [6]): Active; Activity (Escherichia coli [7]): 28%; inhibition at 50 µM (Candida albicans [9]): 92%; inhibition at 50 µM (Candida albicans [10]): 52%; Activity (Candida albicans [11]): Active; Activity (Pseudomonas aeruginosa [12]): Active; Activity (Candida albicans [13]): Active
O=C1C=CC(=C(Cl)Cl)O1,inactive,inactive,<=5%,inactive,52,inhibition at 50 µM (Candida albicans [9]): 21%; Activity [14]: Non-Toxic; Activity [15]: Non-Toxic
O=C1C=C/C(=C(/Br)c2ccc([N+](=O)[O-])cc2)O1,inactive,inactive,<=5%,inactive,–,–
O=C1C=CC(=C(c2ccc(F)cc2)c2ccc(F)cc2)O1,inactive,inactive,<=5%,inactive,–,–
O=C1C=C/C(=C(/Br)c2cccc([N+](=O)[O-])c2)O1,inactive,inactive,<=5%,inactive,–,–
COc1cccc(C(=C2C=CC(=O)O2)c2cccc(OC)c2)c1,inactive,inactive,<=5%,inactive,44,inhibition at 50 µM (Staphylococcus aureus): 30%; inhibition at 50 µM (Candida albicans [9]): 53%; inhibition at 50 µM (Candida albicans [10]): 71%; Activity (HK-2): Non-Toxic; Activity [14]: Non-Toxic; Activity [15]: Non-Toxic; survival at 50 µM (Pseudomonas aeruginosa [16]): 72%
O=C1C=CC(=C(c2ccc(C(F)(F)F)cc2)c2ccc(C(F)(F)F)cc2)O1,inactive,inactive,<=5%,inactive,–,–
O=C1C=CC(=C(c2cccc([N+](=O)[O-])c2)c2cccc([N+](=O)[O-])c2)O1,inactive,inactive,<=5%,inactive,–,–
COc1ccc(/C(Br)=C2\C=CC(=O)O2)cc1,inactive,inactive,<=5%,inactive,–,–
O=C1OC(=C(c2ccccc2)c2ccccc2)C=C1Br,inactive,inactive,<=5%,inactive,–,–
O=C1C=C(CBr)C(=C(Br)Br)O1,inactive,inactive,<=5%,inactive,60,Activity (Salmonella typhimurium [5]): 72%; Activity (Salmonella typhimurium [6]): Active; inhibition at 50 µM (Staphylococcus aureus): 71%; inhibition at 50 µM (Candida albicans [9]): 51%; Activity (Candida albicans [11]): Active; Activity (HK-2): Toxic; Activity [14]: Non-Toxic; Activity [15]: Non-Toxic
O=C1C=CC(=C(Br)Br)O1,inactive,inactive,<=5%,inactive,–,Activity (Salmonella typhimurium [5]): 67%; Activity (Salmonella typhimurium [6]): Active; inhibition (Candida albicans [17]): Active; Activity (Candida albicans [11]): Active; Activity (Candida albicans [13]): Active; Activity (Escherichia coli [18]): inactive; inhibition (Candida albicans [19]): Active; Activity (Candida albicans [20]): Active
O=C1C=CC(=C(c2cccs2)c2cccs2)O1,inactive,inactive,<=5%,inactive,–,–
O=C1C=C/C(=C/Br)O1,inactive,inactive,<=5%,inactive,75,inhibition (Candida albicans [17]): Active; Activity (Candida albicans [11]): Active; Activity (HK-2): Toxic; Activity [14]: Non-Toxic; Activity [15]: Non-Toxic; Activity (Candida albicans [13]): Active; Activity (Escherichia coli [18]): inactive; Activity (Pseudomonas aeruginosa [21]): inactive; inhibition (Candida albicans [19]): inactive; Activity (Candida albicans [20]): Active
